Results from publication PMC8508980, “Design, Synthesis and Anticancer Profile of New 4-(1H-benzo[d]imidazol-1-yl)pyrimidin-2-amine-Linked Sulfonamide Derivatives with V600EBRAF Inhibitory Effect” (International Journal of Molecular Sciences, 2021).

Experiments:
Assay type in all cases: cell-based, human
breast cancer cell lines = experiment: NCI 60 screen, sub-panel mean; settings: NCI-60, breast cancer sub-panel
Experimental: (§1) Anticancer profiling over a panel of 60 cancer cell lines was carried out at the National Cancer Institute (NCI), Bethesda, Maryland, USA, https://dtp.cancer.gov/discovery_development/nci-60/methodology.htm (Last visit 22 September 2021), using the standard procedure (detailed procedure is located in the Supplementary Information page 50 s).
(§2) NCI standard procedure for 60 cell lines assay
(§3) The human tumor cell lines of the cancer screening panel are grown in RPMI 1640 mediu m containing 5% fetal bovine serum and 2 mM L-glutamine. For a typical screening experiment, cells are inoculated into 96 well microtiter plates in 100 μL at plating densities ranging from 5,000 to 40,000 cells/well depending on the doubling time of individual cell lines. After cell inoculation, the microtiter plates are incubated at 37° C, 5 % CO2, 95 % air and 100 % relative humidity for 24 h prior to addition of experimental drugs.
(§4) After 24 h, two plates of each cell line are fixed in situ with TCA, to represent a measurement of the cell population for each cell line at the time of drug addition (Tz). Experimental drugs are solubilized in dimethyl sulfoxide at 400-fold the desired final maximum test concentration (10 µM) and stored frozen prior to use. At the time of drug addition, an aliquot of frozen concentrate is thawed and diluted to twice the desired final maximum test concentration with co mp lete medium containing 50 μg/ml gentamicin. Additional four, 10-fold or ½ log serial dilutions are made to provide a total of five drug concentrations plus control. Aliquots of 100 μl of these different drug dilutions are added to the appropriate microtiter wells already containing 100 μl of medium, resulting in the required final drug concentrations.
(§5) Following drug addition, the plates are incubated for an additional 48 h at 37°C, 5 % CO2, 95 % air, and 100 % relative humidity. For adherent cells, the assay is terminated by the addition of cold TCA. Cells are fixed in situ by the gentle addition of 50 μl of cold 50 % (w/v) TCA (final concentration, 10 % TCA) and incubated for 60 minutes at 4°C. The supernatant is discarded, and the plates are washed five times with tap water and air dried. Sulforhodamine B (SRB) solution (100 μl) at 0.4 % (w/v) in 1 % acetic acid is added to each well, and plates are incubated for 10 minutes at room temperature. After staining, unbound dye is removed by washing five times with 1 % acetic acid and the plates are air dried. Bound stain is subsequently solubilized with 10 mM trizma base, and the absorbance is read on an automated plate reader at a wavelength of 515 nm. For suspension cells, the methodology is the same except that the assay is terminated by fixing settled cells at the bottom of the wells by g ently adding 50 μl of 80 % TCA (final concentration, 16 % TCA). Using the seven absorbance measurements [time zero, (Tz), control growth, (C), and test growth in the presence of drug at the five concentration levels (Ti)], the percentage growth is calculated at each of the drug concentrations levels. Percentage growth inhibition is calculated as:
(§6) [(Ti-Tz)/(C-Tz)] x 100 for concentrations for which Ti>/=Tz
(§7) [(Ti-Tz)/Tz] x 100 for concentrations for which Ti<Tz.
(§8) Three dose response parameters are calculated for each experimental agent. Growth inhibition of […]
(§9) resulting in a 50% reduction in the net protein increase (as measured by SRB staining) in control cells during the drug incubation. The drug concentration resulting in total growth inhibition […]
(§10) (TGI) is calculated from Ti = Tz.

leukemia cell lines = experiment: NCI 60 screen, sub-panel mean; settings: NCI-60, leukemia sub-panel
Experimental: as §1, §2, §3, §4, §5, §6, §7, §8, §9, §10

[1] = test system: ovarian cancer cell lines; experiment: NCI 60 screen, sub-panel mean; settings: NCI-60, ovarian cancer sub-panel
Experimental: as §1, §2, §3, §4, §5, §6, §7, §8, §9, §10

[2] = test system: prostate cancer cell lines; experiment: NCI 60 screen, sub-panel mean; settings: NCI-60, prostate cancer sub-panel
Experimental: as §1, §2, §3, §4, §5, §6, §7, §8, §9, §10

CAKI-1 = experiment: NCI 60 cell line screen
Method in brief: (§11)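 SRB read-out (515 nm) after 48 h drug exposure, 37 °C, RPMI 1640/5% FBS; five-point dilution series, top conc. 10 µM. Percent growth from Tz, control and treated absorbances; GI50 and TGI derived.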

EKVX = experiment: NCI 60 cell line screen; settings: Homo sapiens, Non-Small Cell Lung Cancer, read-out: Percent growth
Method in brief: as §11

HCT-15 = experiment: NCI 60 cell line screen
Method in brief: as §11

HOP-92 = experiment: NCI 60 cell line screen
Method in brief: (§12)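 Human tumour lines were grown in RPMI 1640 with 5% FBS and 2 mM L-glutamine, then exposed 48 h at 37 °C to five concentrations (max 10 µM) after 24 h pre-incubation. Growth was measured by sulforhodamine B protein staining at 515 nm relative to time-zero and untreated controls.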

HT29 = experiment: NCI 60 cell line screen
Method in brief: as §11

KM12 = experiment: NCI 60 cell line screen; settings: Homo sapiens; KM12, Colon Cancer; read-out: Percent growth
Method in brief: as §12

MDA-MB-468 = experiment: NCI 60 cell line screen; settings: Homo sapiens; MDA-MB-468, Breast Cancer; read-out: Percent growth
Method in brief: as §12

MOLT-4 = experiment: NCI 60 cell line screen; settings: Homo sapiens; MOLT-4, Leukemia; read-out: Percent growth
Method in brief: as §12

NCI-H23 = experiment: NCI 60 cell line screen; settings: Homo sapiens; NCI-H23, Non-Small Cell Lung Cancer; read-out: Percent growth
Method in brief: as §11

NCI-H460 = experiment: NCI 60 cell line screen; settings: Homo sapiens; NCI-H460, Non-Small Cell Lung Cancer; read-out: Percent growth
Method in brief: as §11

NCI-H522 = experiment: NCI 60 cell line screen; settings: Homo sapiens; NCI-H522, Non-Small Cell Lung Cancer; read-out: Percent growth
Method in brief: as §11

NCI/ADR-RES = experiment: NCI 60 cell line screen; settings: Homo sapiens, Ovarian Cancer, read-out: Percent growth
Method in brief: as §11

PC-3 = experiment: NCI 60 cell line screen; settings: Homo sapiens; PC-3, Prostate Cancer; read-out: Percent growth
Method in brief: as §11

RPMI-8226 = experiment: NCI 60 cell line screen; settings: Homo sapiens; RPMI-8226, Leukemia; read-out: Percent growth
Method in brief: as §12

SK-MEL-5 = experiment: NCI 60 cell line screen
Method in brief: as §12

SNB-75 = experiment: NCI 60 cell line screen; settings: Homo sapiens; SNB-75, CNS-Cancer; read-out: Percent growth
Method in brief: as §11

UO-31 = experiment: NCI 60 cell line screen
Method in brief: as §11

O=S(=O)(NCCCNc1nccc(-n2cnc3ccccc32)n1)c1ccc(C(F)(F)F)cc1 [12l, N-(3-((4-(1H-benzo [d]imidazol-1-yl)pyrimidin-2-yl)amino)propyl)-4-(trifluoromethyl) benzenesulfonamide]
mean percent inhibition (breast cancer cell lines): around 40% | mean percent inhibition (leukemia cell lines): 46% | mean percent inhibition [1]: around 25% | mean percent inhibition [2]: around 20% | percent inhibition (CAKI-1; CAKI-1, NCI-60 heat map analysis): 49% | activity at 10 µM (CAKI-1; Homo sapiens, CAKI-1, Renal Cancer, read-out: Percent growth): 51.4% | activity at 10 µM (EKVX): 58.1% | percent inhibition (HCT-15; HCT-15, NCI-60 heat map analysis): more than 40% | activity at 10 µM (HCT-15; Homo sapiens, HCT-15, Colon Cancer, read-out: Percent growth): 53.8% | percent inhibition (HOP-92; HOP-92, NCI-60 heat map analysis): around 40% | activity at 10 µM (HOP-92; Homo sapiens, HOP-92, Non-Small Cell Lung Cancer, read-out: Percent growth): 56% | percent inhibition (HT29; HT29, NCI-60 heat map analysis): more than 40% | activity at 10 µM (HT29; Homo sapiens, HT-29, HT29, Colon Cancer, read-out: Percent growth): 54.6% | activity at 10 µM (KM12): 51.7% | activity at 10 µM (MDA-MB-468): 52.7% | activity at 10 µM (MOLT-4): 38.4% | activity at 10 µM (NCI-H23): 82.5% | activity at 10 µM (NCI-H460): 79.3% | activity at 10 µM (NCI-H522): 66.9% | activity at 10 µM (NCI/ADR-RES): 55.8% | activity at 10 µM (PC-3): 59% | activity at 10 µM (RPMI-8226): 55.6% | activity at 10 µM (SK-MEL-5; Homo sapiens, SK-MEL-5, Melanoma, read-out: Percent growth): 29.9% | percent inhibition (SK-MEL-5; SK-MEL-5, NCI-60 heat map analysis): 70% | activity at 10 µM (SNB-75): 65.2% | activity at 10 µM (UO-31; Homo sapiens, UO-31, Renal Cancer, read-out: Percent growth): 54.4% | percent inhibition (UO-31; UO-31, NCI-60 heat map analysis): 46%
